Measured values published in PubChem BioAssay (NCI).
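Values below derive from 48-hour exposures of cells grown in 96-well plates, with endpoints linearly interpolated between the two concentrations bracketing the appropriate inhibition level. GI50 = concentration required for 50% inhibition of growth. TGI: total growth inhibition.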

Key:
Assay in all cases: NCI-60 cell line screen, 48 h
SF-295 CNS = tested on: SF-295 CNS
EKVX NSCLC = tested on: EKVX NSCLC
HCC-2998 colon = tested on: HCC-2998 colon
NCI/ADR-RES ovarian = tested on: NCI/ADR-RES ovarian
MALME-3M melanoma = tested on: MALME-3M melanoma
SR leukemia = tested on: SR leukemia
HS 578T breast = tested on: HS 578T breast
HCT-116 colon = tested on: HCT-116 colon
A498 renal = tested on: A498 renal
COLO 205 colon = tested on: COLO 205 colon
K-562 leukemia = tested on: K-562 leukemia
MDA-MB-435 = tested on: MDA-MB-435
SNB-75 CNS = tested on: SNB-75 CNS
SK-OV-3 ovarian = tested on: SK-OV-3 ovarian
SF-268 CNS = tested on: SF-268 CNS
HL-60(TB) leukemia = tested on: HL-60(TB) leukemia
UO-31 renal = tested on: UO-31 renal
A549 NSCLC = tested on: A549 NSCLC
MCF7 breast = tested on: MCF7 breast
PC-3 prostate = tested on: PC-3 prostate
DU-145 prostate = tested on: DU-145 prostate
SK-MEL-28 melanoma = tested on: SK-MEL-28 melanoma
T-47D breast = tested on: T-47D breast
HOP-92 NSCLC = tested on: HOP-92 NSCLC
OVCAR-8 ovarian = tested on: OVCAR-8 ovarian
SN12C renal = tested on: SN12C renal
HOP-62 NSCLC = tested on: HOP-62 NSCLC
SK-MEL-5 melanoma = tested on: SK-MEL-5 melanoma
HCT-15 colon = tested on: HCT-15 colon
MDA-MB-231 breast = tested on: MDA-MB-231 breast
ACHN renal = tested on: ACHN renal
RPMI-8226 leukemia = tested on: RPMI-8226 leukemia
SW-620 colon = tested on: SW-620 colon
HT29 colon = tested on: HT29 colon
NCI-H226 lung = tested on: NCI-H226 lung
IGROV1 ovarian = tested on: IGROV1 ovarian
OVCAR-5 ovarian = tested on: OVCAR-5 ovarian
NCI-H522 lung = tested on: NCI-H522 lung
U251 CNS = tested on: U251 CNS
NCI-H460 lung = tested on: NCI-H460 lung
OVCAR-3 ovarian = tested on: OVCAR-3 ovarian
UACC-257 melanoma = tested on: UACC-257 melanoma
MOLT-4 leukemia = tested on: MOLT-4 leukemia
TK-10 renal = tested on: TK-10 renal
LOX IMVI melanoma = tested on: LOX IMVI melanoma
KM12 colon = tested on: KM12 colon
NCI-H23 lung = tested on: NCI-H23 lung
CCRF-CEM leukemia = tested on: CCRF-CEM leukemia
UACC-62 melanoma = tested on: UACC-62 melanoma
OVCAR-4 ovarian = tested on: OVCAR-4 ovarian
CAKI-1 renal = tested on: CAKI-1 renal
SF-539 CNS = tested on: SF-539 CNS
M14 melanoma = tested on: M14 melanoma
786-0 renal = tested on: 786-0 renal
SNB-19 CNS = tested on: SNB-19 CNS
BT-549 breast = tested on: BT-549 breast
RXF 393 renal = tested on: RXF 393 renal
SK-MEL-2 melanoma = tested on: SK-MEL-2 melanoma

Cc1ccc(-n2c(-c3cc4c([nH]c5ccccc54)c(-c4cccc(O)c4)n3)n[nH]c2=S)cc1
GI50 (SF-295 CNS): 1.11 µM | TGI (SF-295 CNS): 3.12 µM | GI50 (EKVX NSCLC): 1.95 µM | TGI (EKVX NSCLC): 11.1 µM | GI50 (HCC-2998 colon): 0.268 µM | TGI (HCC-2998 colon): 0.838 µM | GI50 (NCI/ADR-RES ovarian): 4.14 µM | TGI (NCI/ADR-RES ovarian): 24.1 µM | GI50 (MALME-3M melanoma): 2.57 µM | TGI (MALME-3M melanoma): 17.6 µM | GI50 (SR leukemia): 0.443 µM | TGI (SR leukemia): 2.07 µM | GI50 (HS 578T breast): 1.74 µM | TGI (HS 578T breast): 36.2 µM | GI50 (HCT-116 colon): 0.384 µM | TGI (HCT-116 colon): 10 µM | GI50 (A498 renal): 0.263 µM | TGI (A498 renal): 0.738 µM | GI50 (COLO 205 colon): 2.46 µM | TGI (COLO 205 colon): 8.14 µM | GI50 (K-562 leukemia): 0.523 µM | TGI (K-562 leukemia): > 100 µM | GI50 (MDA-MB-435): 0.649 µM | TGI (MDA-MB-435): 2.75 µM | GI50 (SNB-75 CNS): 1.34 µM | TGI (SNB-75 CNS): 6.17 µM | GI50 (SK-OV-3 ovarian): 1.18 µM | TGI (SK-OV-3 ovarian): 4.44 µM | GI50 (SF-268 CNS): 1.32 µM | TGI (SF-268 CNS): 10.6 µM | GI50 (HL-60(TB) leukemia): 1.08 µM | TGI (HL-60(TB) leukemia): 3.43 µM | GI50 (UO-31 renal): 2.56 µM | TGI (UO-31 renal): 15 µM | GI50 (A549 NSCLC): 2.34 µM | TGI (A549 NSCLC): 10.4 µM | GI50 (MCF7 breast): 1.8 µM | TGI (MCF7 breast): 10.5 µM | GI50 (PC-3 prostate): 2.48 µM | TGI (PC-3 prostate): 42.4 µM | GI50 (DU-145 prostate): 0.616 µM | TGI (DU-145 prostate): 6.17 µM | GI50 (SK-MEL-28 melanoma): 0.628 µM | TGI (SK-MEL-28 melanoma): 4.22 µM | GI50 (T-47D breast): 1.8 µM | TGI (T-47D breast): 11.9 µM | GI50 (HOP-92 NSCLC): 4.76 µM | TGI (HOP-92 NSCLC): 27.4 µM | GI50 (OVCAR-8 ovarian): 0.442 µM | TGI (OVCAR-8 ovarian): 3.67 µM | GI50 (SN12C renal): 0.936 µM | TGI (SN12C renal): 6.91 µM | GI50 (HOP-62 NSCLC): 1.24 µM | TGI (HOP-62 NSCLC): 4.87 µM | GI50 (SK-MEL-5 melanoma): 1.32 µM | TGI (SK-MEL-5 melanoma): 3.31 µM | GI50 (HCT-15 colon): 0.61 µM | TGI (HCT-15 colon): 6.94 µM | GI50 (MDA-MB-231 breast): 1.35 µM | TGI (MDA-MB-231 breast): 6.35 µM | GI50 (ACHN renal): 2.37 µM | TGI (ACHN renal): 15.4 µM | GI50 (RPMI-8226 leukemia): 0.808 µM | TGI (RPMI-8226 leukemia): 3.76 µM | GI50 (SW-620 colon): 0.406 µM | TGI (SW-620 colon): 11.8 µM | GI50 (HT29 colon): 1.36 µM | TGI (HT29 colon): 3.68 µM | GI50 (NCI-H226 lung): 0.658 µM | TGI (NCI-H226 lung): 3.94 µM | GI50 (IGROV1 ovarian): 0.704 µM | TGI (IGROV1 ovarian): 4.74 µM | GI50 (OVCAR-5 ovarian): 3.73 µM | TGI (OVCAR-5 ovarian): 17.1 µM | GI50 (NCI-H522 lung): 0.861 µM | TGI (NCI-H522 lung): 5.27 µM | GI50 (U251 CNS): 0.371 µM | TGI (U251 CNS): 2.22 µM | GI50 (NCI-H460 lung): 0.393 µM | TGI (NCI-H460 lung): 10.2 µM | GI50 (OVCAR-3 ovarian): 0.399 µM | TGI (OVCAR-3 ovarian): 1.86 µM | GI50 (UACC-257 melanoma): 2.03 µM | TGI (UACC-257 melanoma): 7.11 µM | GI50 (MOLT-4 leukemia): 0.908 µM | TGI (MOLT-4 leukemia): 4.76 µM | GI50 (TK-10 renal): 3.68 µM | TGI (TK-10 renal): 16.2 µM | GI50 (LOX IMVI melanoma): 0.461 µM | TGI (LOX IMVI melanoma): 1.97 µM | GI50 (KM12 colon): 1.15 µM | TGI (KM12 colon): 5.1 µM | GI50 (NCI-H23 lung): 1.67 µM | TGI (NCI-H23 lung): 9.84 µM | GI50 (CCRF-CEM leukemia): 0.682 µM | TGI (CCRF-CEM leukemia): 11.6 µM | GI50 (UACC-62 melanoma): 0.491 µM | TGI (UACC-62 melanoma): 2.57 µM | GI50 (OVCAR-4 ovarian): 2.23 µM | TGI (OVCAR-4 ovarian): 11 µM | GI50 (CAKI-1 renal): 1.73 µM | TGI (CAKI-1 renal): 4.9 µM | GI50 (SF-539 CNS): 0.306 µM | TGI (SF-539 CNS): 1.06 µM | GI50 (M14 melanoma): 1.1 µM | TGI (M14 melanoma): 3.71 µM | GI50 (786-0 renal): 2.6 µM | TGI (786-0 renal): 12.8 µM | GI50 (SNB-19 CNS): 0.403 µM | TGI (SNB-19 CNS): 3.7 µM

CC1CC(N2CCOCC2)=Nc2ccccc2N1Cc1ccccc1 (stereo not given)
TGI (SF-295 CNS): > 100 µM | TGI (EKVX NSCLC): > 100 µM | TGI (NCI/ADR-RES ovarian): > 100 µM | TGI (MALME-3M melanoma): 63.1 µM | TGI (HS 578T breast): > 100 µM | TGI (BT-549 breast): > 100 µM | TGI (HCT-116 colon): > 100 µM | TGI (A498 renal): 52.3 µM | TGI (COLO 205 colon): > 100 µM | TGI (K-562 leukemia): > 100 µM | TGI (MDA-MB-435): > 100 µM | TGI (RXF 393 renal): 63.4 µM | TGI (SK-OV-3 ovarian): > 100 µM | TGI (SF-268 CNS): > 100 µM | TGI (HL-60(TB) leukemia): > 100 µM | TGI (UO-31 renal): > 100 µM | TGI (A549 NSCLC): > 100 µM | TGI (PC-3 prostate): > 100 µM | TGI (DU-145 prostate): > 100 µM | TGI (SK-MEL-28 melanoma): > 100 µM | TGI (OVCAR-8 ovarian): > 100 µM | TGI (SN12C renal): > 100 µM | TGI (HOP-62 NSCLC): > 100 µM | TGI (SK-MEL-5 melanoma): > 100 µM | TGI (HCT-15 colon): > 100 µM | TGI (SK-MEL-2 melanoma): > 100 µM | TGI (MDA-MB-231 breast): > 100 µM | TGI (ACHN renal): > 100 µM | TGI (RPMI-8226 leukemia): > 100 µM | TGI (SW-620 colon): > 100 µM | TGI (HT29 colon): > 100 µM | TGI (NCI-H226 lung): > 100 µM | TGI (IGROV1 ovarian): > 100 µM | TGI (OVCAR-5 ovarian): > 100 µM | TGI (NCI-H522 lung): > 100 µM | TGI (U251 CNS): > 100 µM | TGI (NCI-H460 lung): > 100 µM | TGI (OVCAR-3 ovarian): > 100 µM | TGI (UACC-257 melanoma): > 100 µM | TGI (TK-10 renal): > 100 µM | TGI (LOX IMVI melanoma): > 100 µM | TGI (KM12 colon): > 100 µM | TGI (NCI-H23 lung): > 100 µM | TGI (CCRF-CEM leukemia): > 100 µM | TGI (UACC-62 melanoma): > 100 µM | TGI (OVCAR-4 ovarian): > 100 µM | TGI (CAKI-1 renal): > 100 µM | TGI (M14 melanoma): > 100 µM | TGI (786-0 renal): > 100 µM | TGI (SNB-19 CNS): > 100 µM
